# Reference: PubChem BioAssay (NCI)
#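 48-hour exposure; five concentrations; linearly interpolated endpoints. The concentration for 50% growth inhibition is given as GI50. TGI marks complete inhibition of growth.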
# Key:
# Experiment in all cases: DTP human tumour cell line panel, 48 h
# [1] = system: RXF 393 renal
# [2] = system: TK-10 renal
# [3] = system: SK-OV-3 ovarian
# [4] = system: SK-MEL-2 melanoma
# [5] = system: RPMI-8226 leukemia
# [6] = system: HOP-92 NSCLC
# [7] = system: PC-3 prostate
# [8] = system: SK-MEL-28 melanoma
# [9] = system: NCI-H226 lung
# [10] = system: OVCAR-8 ovarian
# [11] = system: SNB-19 CNS
# [12] = system: BT-549 breast
# [13] = system: KM12 colon
# [14] = system: SK-MEL-5 melanoma
# [15] = system: UACC-257 melanoma
# [16] = system: SF-268 CNS
# [17] = system: SF-295 CNS
# [18] = system: OVCAR-5 ovarian
# [19] = system: NCI-H460 lung
# [20] = system: HL-60(TB) leukemia
# [21] = system: 786-0 renal
# [22] = system: NCI/ADR-RES ovarian
# [23] = system: HCT-15 colon
# [24] = system: MALME-3M melanoma
# [25] = system: SN12C renal
# [26] = system: MDA-MB-435
# [27] = system: T-47D breast
# [28] = system: NCI-H23 lung
structure (smiles),measurement,setting,value
CCCCCCCNc1nc(C(=O)OCC)ncc1-c1ccc(C(F)(F)F)cc1,GI50,[1],19 µM
same,TGI,[1],71.1 µM
same,GI50,[2],51.2 µM
same,TGI,[2],> 100 µM
same,GI50,[3],39.1 µM
same,TGI,[3],> 100 µM
same,GI50,[4],26.6 µM
same,TGI,[4],66.7 µM
same,GI50,[5],17.8 µM
same,TGI,[5],66.9 µM
same,GI50,[6],24.8 µM
same,TGI,[6],> 100 µM
same,GI50,[7],26.6 µM
same,TGI,[7],> 100 µM
same,GI50,[8],66.2 µM
same,TGI,[8],> 100 µM
same,GI50,[9],30.5 µM
same,TGI,[9],> 100 µM
same,GI50,[10],40.2 µM
same,TGI,[10],> 100 µM
same,GI50,[11],33.4 µM
same,TGI,[11],> 100 µM
same,GI50,[12],29.1 µM
same,TGI,[12],97.7 µM
same,GI50,[13],33.6 µM
same,TGI,[13],> 100 µM
same,GI50,[14],20.6 µM
same,TGI,[14],51.9 µM
same,GI50,[15],26.6 µM
same,TGI,[15],75.6 µM
same,GI50,[16],48.2 µM
same,TGI,[16],> 100 µM
same,GI50,[17],26.4 µM
same,TGI,[17],> 100 µM
same,GI50,[18],> 100 µM
same,TGI,[18],> 100 µM
same,GI50,[19],14.7 µM
same,TGI,[19],32.7 µM
same,GI50,[20],30.4 µM
same,TGI,[20],88.8 µM
same,GI50,[21],39.3 µM
same,TGI,[21],> 100 µM
same,GI50,[22],34.5 µM
same,TGI,[22],> 100 µM
same,GI50,[23],33.2 µM
same,TGI,[23],> 100 µM
same,GI50,[24],41.8 µM
same,TGI,[24],> 100 µM
same,GI50,[25],33.8 µM
same,TGI,[25],> 100 µM
same,GI50,[26],32.1 µM
same,TGI,[26],> 100 µM
same,GI50,[27],28.1 µM
same,TGI,[27],> 100 µM
same,GI50,[28],42.2 µM
same,TGI,[28],> 100 µM
